Measurements reported in PMC9841525, “Chemical Blockage of the Mitochondrial Rhomboid Protease PARL by Novel Ketoamide Inhibitors Reveals Its Role in PINK1/Parkin-Dependent Mitophagy” (Journal of Medicinal Chemistry, 2022).
Entries after “also recorded” stand apart in the source; their conditions may differ. Where a SMILES comes first, the peptide text is derived from it. The star is where a group is joined. AMC = Cc1cc(=O)oc2cc(N*)ccc12

Assays:
GlpG [1] = biological target: T1, GlpG (Escherichia coli, UniProt P09391); format: biochemical, E. coli
T1 construct: Full-length GlpG with C-terminal His-tag was overexpressed from pET25b + in E. coli C43(DE3); His-tag (C); made in house; host or cells: E. coli C43(DE3)
T1 sequence (P09391 whole entry): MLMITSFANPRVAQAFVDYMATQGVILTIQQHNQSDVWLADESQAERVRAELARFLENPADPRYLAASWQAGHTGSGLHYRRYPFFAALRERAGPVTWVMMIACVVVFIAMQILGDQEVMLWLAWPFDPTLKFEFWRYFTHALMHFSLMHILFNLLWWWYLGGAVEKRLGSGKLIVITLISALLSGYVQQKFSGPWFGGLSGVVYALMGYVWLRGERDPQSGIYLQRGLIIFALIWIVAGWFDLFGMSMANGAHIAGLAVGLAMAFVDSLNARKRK
Description: Emission spectra of aminomethyl coumarin and cleavage of compound 1 were monitored in 50 mM potassium phosphate pH 7.4, 150 mM NaCl, 20% (w/v) glycerol, 0.05% (w/v) PEG8000, 0.05% (w/v) DDM, 10% (w/v) DMSO. The compounds (1 mM) were incubated with 10 μM GlpG WT or S201T, 1 μM elastase, or buffer, respectively, as indicated in the legend of Figure 1A at 37 °C for 1 h. Samples were diluted 8-fold with buffer, and emission spectra were measured in 96-well black HTS plates (Greiner Bio-One) by a plate reader (Tecan Infinite M1000) using an excitation wavelength of 355 nm. Data were evaluated using Excel (Microsoft) and GraphPad Prism 9 (GraphPad Software, Inc.). The data shown are representative of three independent experiments.
(§1) Activity and inhibition assays of GlpG shown in Figure 1B–D were carried out in 50 mM potassium phosphate pH 7.4, 150 mM NaCl, 20% (v/v) glycerol, 0.05% (w/v) PEG8000, 0.05% (w/v) DDM, and 5% (v/v) DMSO. […] All activity measurements were performed at 37 °C in 96-well black HTS plates (Greiner Bio-One) and fluorescence was monitored in a plate reader (Tecan Infinite M1000) with excitation and emission wavelengths set to 355 and 450 nm, respectively, for compound 1, and 335 and 493 nm, respectively, for the transmembrane substrate KSp96. Data were evaluated using Excel (Microsoft) and GraphPad Prism 9 (GraphPad Software, Inc.).
Activity measurements of GlpG with varying DDM concentrations were obtained in 20 mM HEPES (pH 7.4), 150 mM NaCl using 100 nM GlpG, and DDM at the concentration indicated in the graphs. Buffer for measurements with compound 1 contained additionally 5% (v/v) DMSO. Compound 1 and transmembrane substrate were used at 10 μM final concentration. Activity measurements were performed at 37 °C in 96-well black HTS plates (Greiner Bio-One), and fluorescence was monitored in a plate reader (Tecan Infinite M1000) with excitation and emission wavelengths set to 355 and 450 nm for compound 1 and 335 and 493 nm for the transmembrane substrate, respectively. Data were evaluated using Excel (Microsoft) and GraphPad Prism 9 (GraphPad Software, Inc.).

[2] = Solubility of fluorogenic substrates in assay buffer (qualitative)
GlpG [3] = biological target: T1, GlpG; experiment: Inhibition assay of GlpG with fluorogenic substrate compound 1; format: biochemical, E. coli; details: detergent-solubilized GlpG 100 nM, substrate compound 1, 1 h preincubation at 37 °C, mean ± SEM of three measurements
Description: as §1

HEK293T cells = experiment: JC-1 mitochondrial membrane potential assay; format: cell-based, human; details: 5 µM compound 5 or CCCP, at least three hours, compared to DMSO
Description: Staining of cells for the determination of mitochondrial membrane potential was carried out with the JC-1 mitochondrial staining kit (Sigma-Aldrich) according to the kit’s instructions; stained cells were immediately taken to live cell imaging.
(§2) For fixation, cells were incubated for 15 min with 4% formaldehyde (16% formaldehyde diluted in PBS, Thermo Scientific) and washed in PBS. The cover glasses were mounted with Fluoromount-G (Southern Biotech) on microscope slides. All microscopy was performed on an LSM 780 system (Carl Zeiss) with a Plan-APOCHROMAT 63× 1.4NA oil objective (Carl Zeiss) and pinhole settings of 1 AU with the Zeiss ZEN 2010 software. Image processing and analysis was performed using ImageJ (http://rsb.info.nih.gov/ij/). […] Parkin recruitment events to the mitochondria were counted by hand throughout each z-stack and cell. […] JC-1 images were handled as summed intensity z-stack projections, as well as subjected to flatfield correction and subtraction of background before measuring the fluorescence levels normalized to the number of cell nuclei. The fluorescence intensity ratio between the red and green signal was calculated and compared to DMSO as a ratio of 1. Data were evaluated using Excel and GraphPad Prism 6.

Parkin [4] = experiment: Parkin recruitment to mitochondria, subcellular fractionation and immunoblot; format: cell-based, human; details: HEK293 T-REx PINK1 cells, HA-Parkin-IRES-GFP; 5 μM compound 5, CCCP 10 μM or Antimycin A 30 μM
Description: (§3) Inducible stable Flp-In HEK293 T-REx cells expressing PINK1 were described previously.[33] HEK293 T-REx PINK1 and HEK293T cells were grown in DMEM (Gibco) supplemented with 10% (v/v) fetal bovine serum (ThermoFisher), 1% (v/v) GlutaMAX (Gibco), 1% (v/v) sodium pyruvate (Gibco), 125 μg/mL hygromycin (Invitrogen), and 10 μg/mL blasticidin (Gibco) or DMEM supplemented with 10% (v/v) fetal bovine serum, respectively, at 37 °C in 5% (v/v) CO2. For microscopy, cells were seeded on poly-L-lysine (Sigma)-coated slides. Transient plasmid transfections were performed using 25 kDa linear polyethylenimine (Polysciences). Plasmid (100 ng) encoding HA-Parkin-IRES-GFP, mito-mCherry or Parkin-mEGFP, or 500 ng plasmid encoding PGAM5-FLAG were used per 6-well. Total transfected DNA was 2 μg/well. For siRNA transfection, 2 × 10^5 cells were seeded per 6-well and on the next day transfected with 20 nM siRNA-oligonucleotide using lipofectamine RNAiMAX (ThermoFisher). Cells were analyzed 27 h post-transfection or five days post-siRNA-transfection. HEK293 T-REx PINK1 cells were induced with 0.3 μg/mL doxycycline for 24 h before further processing. Hoechst staining (1 μg/mL) was done immediately before adding treatment to the cells. Treatments were administered for the indicated times before processing; CCCP (Sigma) was always used as 10 μM for 3 h and Antimycin A (Sigma) as 30 μM for 3 h.
Unless mentioned otherwise, all steps were performed at 4 °C. For subcellular fractionation to separate cellular content into cytosolic and mitochondrial fractions, cells were washed with PBS, harvested in PBS-EDTA (1 mM EDTA, 0.2 g/L D-glucose), and centrifuged at 500 × g for 5 min. […]
For immunoblot analysis in other cases, cells were either processed as described above or washed with PBS and directly lysed with Tris-glycine SDS-PAGE sample buffer and heated for 15 min at 65 °C. […] For quantification, ImageJ was used (http://rsb.info.nih.gov/ij/). […]

Parkin [5] = experiment: Parkin recruitment to mitochondria and mitochondrial morphology, fluorescence microscopy; format: cell-based, human; details: HEK293 T-REx PINK1 cells, 3 h
Description: as §3
as §2, with “slides.” for “slides. All microscopy was performed on an LSM 780 system (Carl Zeiss) with a Plan-APOCHROMAT 63× 1.4NA oil objective (Carl Zeiss) and pinhole settings of 1 AU with the Zeiss ZEN 2010 software. Image processing and analysis was performed using ImageJ (http://rsb.info.nih.gov/ij/).”

PARL = biological target: T2, PARL (Homo sapiens, UniProt Q9H300); experiment: In vitro assay for PARL activity, cleavage of AMC substrates by liposome-embedded PARL; format: biochemical; set-up: hexahistidine tag (C); made in house; host or cells: continuous-exchange cell-free expression in bacterial lysates with T7 polymerase (CUBE biotech), into liposomes; details: mature PARL in liposomes, S277A catalytic mutant as control
T2 sequence (Q9H300 53-379): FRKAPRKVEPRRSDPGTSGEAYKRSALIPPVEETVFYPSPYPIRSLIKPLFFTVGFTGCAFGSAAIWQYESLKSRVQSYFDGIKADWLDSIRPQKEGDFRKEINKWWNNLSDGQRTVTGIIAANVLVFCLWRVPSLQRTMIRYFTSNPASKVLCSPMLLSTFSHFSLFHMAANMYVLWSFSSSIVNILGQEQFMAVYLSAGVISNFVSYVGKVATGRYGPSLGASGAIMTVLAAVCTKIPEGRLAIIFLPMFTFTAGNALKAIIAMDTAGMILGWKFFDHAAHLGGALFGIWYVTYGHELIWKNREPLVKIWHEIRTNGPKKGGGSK
Description: Liposome preparation and cell-free protein expression of PARL were carried out essentially as described previously.[27] Liposomes resembling the lipid composition of the IMM were prepared by mixing 40% DOPC (1,2-dioleoyl-sn-glycero-3-phosphocholine), 33.8% DOPE (1,2-dioleoyl-sn-glycero-3-phosphoethanolamine), 18% CL(18:1)4 (1′,3′-bis[1,2-dioleyl-sn-glycero-3-phospho]-glycerol), 3% DOPS (1,2-dioleoyl-sn-glycero-3-phospho-L-serine), 5% soy-PI (L-α-phosphatidylinositol), and 0.2% rhodamine-PE (1,2-dioleoyl-sn-glycero-3-phosphoethanolamine-N-(lissamine rhodamine B sulfonyl)) in chloroform, followed by the evaporation of chloroform by a stream of nitrogen gas and drying in a vacuum chamber (Binder) for 1 h. […] Concentration of PARL was determined by absorption at 280 nm.
The PARL activity assay in vitro was carried out in 5 mM Tris, 5 mM Mg(OAc)2, 25 μM Zn(OAc)2, 0.1 μg/μL BSA, 30% DMSO, pH 8.0 using PARL in liposomes at 0.05 mg/mL. Compound 3 and 4 were used at 5 μM final concentration based on quantitative amino acid analysis. […] The cleavage reaction was carried out at 37 °C in 96-well black HTS plates (Greiner Bio-One) in a plate reader (Tecan Infinite M1000) with excitation and emission wavelengths set to 355 and 450 nm, respectively. Data were evaluated using Excel (Microsoft) and GraphPad Prism 9 (GraphPad Software, Inc.).

CC(=O)N[C@@H](CCCNC(=N)N)C(=O)N[C@H](C(=O)N[C@@H](CCCNC(=N)N)C(=O)N[C@@H](Cc1c[nH]cn1)C(=O)N[C@@H](C)C(=O)Nc1ccc2c(C)cc(=O)oc2c1)C(C)C [compound 1, AcRVRHA-4mc] (Ac-RVRHA-{AMC})
Apparent Michaelis constant for substrate (GlpG [1]; GlpG in DDM micelle environment): approximately 500 μM | Michaelis constant KM for substrate (GlpG [1]; GlpG, detergent): about half | Cleavage of substrate by GlpG (GlpG [1]; detergent micelles and/or DIBMA lipid nanodiscs): cleaved by GlpG with similar efficiency in lipid nanodiscs and in detergent micelles; also recorded: can be cleaved by active GlpG embedded in polymer nanodiscs | Solubility of substrate [2]: sufficiently soluble to be useable at hundreds of micromolar concentrations

CC(=O)N[C@H](C(=O)N[C@@H](CCCNC(=N)N)C(=O)N[C@@H](Cc1c[nH]cn1)C(=O)N[C@@H](C)C(=O)C(=O)NCCCCc1ccccc1)C(C)C [compound 2]
IC50 (GlpG [3]): 132 ± 23 nM

N#CC(C#N)=NNc1cccc(Cl)c1 [CCCP, carbonyl cyanide m-chlorophenyl hydrazone]
Effect on mitochondrial membrane potential (JC-1 aggregate to monomer ratio) (HEK293T cells): lowers the membrane potential | Parkin recruitment to the mitochondrial fraction (Parkin [4]): significant recruitment of Parkin to the mitochondrial fraction | Mitochondrial morphology (Parkin [5]): severe rounding and clustering

CC(=O)N[C@@H](C)C(=O)N[C@H](C(=O)N[C@@H](Cc1ccccc1)C(=O)N[C@@H](CC(C)C)C(=O)N[C@@H](C)C(=O)Nc1ccc2c(C)cc(=O)oc2c1)C(C)C [compound 3, AcAVFLA-4mc] (Ac-AVFLA-{AMC})
Cleavage of substrate by liposome-embedded PARL (PARL): are cleaved by liposome-embedded PARL but not its catalytic mutant
